One test concerns the target T1, human RORγt LBD (Homo sapiens, UniProt P51449).
T1 construct: expressed in transfected cells; host or cells: HEK293T
T1 sequence (P51449 258-518): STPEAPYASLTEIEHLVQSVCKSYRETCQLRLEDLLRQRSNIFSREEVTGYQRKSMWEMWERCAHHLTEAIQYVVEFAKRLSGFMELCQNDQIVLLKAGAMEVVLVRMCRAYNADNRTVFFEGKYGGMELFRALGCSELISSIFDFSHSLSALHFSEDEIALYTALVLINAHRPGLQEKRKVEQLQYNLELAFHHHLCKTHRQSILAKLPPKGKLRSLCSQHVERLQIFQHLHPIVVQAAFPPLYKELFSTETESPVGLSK
In words: RORγt (LBD) Reporter Assay (GAL4 luciferase, HEK293T cells). In kind it is cell-based. The following applies: for IC50: compounds for 24 hours. Summed up: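 HEK293T cells transiently co-transfected with GAL4 DBD–human RORγt LBD (pBIND, with renilla luciferase control) and GAL4-responsive firefly luciferase reporter, plated in phenol-red free DMEM with 5% lipid-reduced FCS. Compound exposure 24 h; firefly/renilla luminescence ratio plotted against compound concentration.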
In general terms: Reporter assays use an easily measured gene product as a stand-in for the process of interest.

The next test addresses T2, full-length human RORγt (Homo sapiens, UniProt P51449).
T2 construct: expressed in transfected cells; host or cells: HEK293T
T2 sequence (P51449 1-497 isoform P51449-2): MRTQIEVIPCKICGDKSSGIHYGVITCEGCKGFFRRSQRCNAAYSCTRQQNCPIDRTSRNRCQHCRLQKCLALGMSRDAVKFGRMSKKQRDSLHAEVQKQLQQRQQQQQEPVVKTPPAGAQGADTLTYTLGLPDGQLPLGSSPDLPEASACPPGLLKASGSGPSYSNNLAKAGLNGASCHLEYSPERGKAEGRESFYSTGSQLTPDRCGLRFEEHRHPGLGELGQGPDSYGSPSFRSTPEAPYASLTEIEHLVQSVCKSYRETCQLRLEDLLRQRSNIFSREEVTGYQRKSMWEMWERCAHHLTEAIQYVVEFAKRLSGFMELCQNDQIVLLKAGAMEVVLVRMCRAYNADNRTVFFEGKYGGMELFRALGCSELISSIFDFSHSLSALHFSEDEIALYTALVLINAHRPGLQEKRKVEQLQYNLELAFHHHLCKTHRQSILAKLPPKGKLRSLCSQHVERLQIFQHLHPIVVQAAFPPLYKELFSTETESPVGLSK
In words: RORγt (full-length human) Reporter Assay (GAL4 luciferase, HEK293T cells). In kind it is cell-based. To be noted: for IC50: overnight (16 to 20 hours) incubation, read-out: RORγt (FL) Reporter Assay, IC50. As for the experimental part: Compounds were assessed for RORgt functional modulation using either the RORgt ligand binding domain (LBD) reporter assay, or the RORgt full-length (FL) reporter assay.
A reporter assay was used to test functional activity of RORγt modulatory compounds on transcriptional activation driven by full-length human RORγt. Cells used in this assay were transiently co-transfected with three different plasmids, one expressing the GAL4-DNA binding domain (DBD)-RORγt fusion protein under control of a CMV promoter (NH2-Gal4-DBD:RORC-COOH in pCMV-BD, Stratagene #211342), and two reporter plasmids - the firefly luciferase reporter under control of a GAL4 promoter (pFR-Luc 2x GAL4) and Renilla luciferase reporter under control of CMV promoter (pRL-CMV, Promega #E2261). The full-length coding sequence was used for human RORγt, i.e., nucleotides 142-1635 of human RORγt, transcript variant 2, NCBI Accession: NM_001001523.1 (SEQ ID NO:1). HEK293T cells were plated at 35000 per well in 96-well plate in medium of MEM with 8.6% FBS. After 18-22 hours incubation, the transfection was carried out by using a PEI solution with 170.5 ng total DNA/well (50 ng pCMV-BD-ROR plus 20 ng of pFR-Luc reporter and 0.5 ng of pRL-CMV reporter plus 100 ng Carrier DNA (Clontech # 630440) for each well). 4-6 hours after transfection, cells were treated with compounds for overnight in the medium with final concentration of FBS 1.1% and DMSO 0.1%. After overnight (16 to 20 hours) incubation, media were removed and cells were lysed with 20 µL 1x Passive Lysis Buffer (Promega) for 10-15 minutes. Luminescence was measured using a BMG LUMIstar OPTIMA plate reader, after addition of 75 µL/well firefly luciferase buffer, followed by 75 µL/well Renilla luciferase buffer. To calculate the effect of compounds on RORγt activity, firefly values were normalized against values of DMSO only and values of reference compound at saturating concentration, then further normalized against Renilla signals. IC50s were generated by plotting final Renilla normalized data against compound concentration and percent inhibition was calculated against DMSO control.

The inhibition is the drop in the measured response relative to a control, in per cent. For orientation: IC50 means the concentration that inhibits the measured activity by half.

`COc1nc2ccc(C(O)c3cnc(C)n3C)cc2c(Cl)c1Cc1ccc(C(F)(F)F)cc1` (single isomer, unassigned) [Example 15b, (4-Chloro-2-methoxy-3-(4-(trifluoromethyl)benzyl)quinolin-6-yl)(1,2-dimethyl-1H-imidazol-5-yl)methanol] gave an inhibition at 6 µM against human RORγt LBD (HEK-293T, 6 µM compound) of 100%. In addition, the results for the IC50 at human RORγt LBD and at full-length human RORγt were about 1 µM and 0.091 µM, respectively. Further, on full-length human RORγt (HEK-293T, 0.67 µM compound concentration (footnote *), read-out: RORγt (FL) Reporter Assay, % inhibition (values marked *)), the inhibition at 0.67 µM was 85%.
Turning to `COc1nc2ccc(C(O)c3cnc(C)n3C)cc2c(Cl)c1Cc1ccc(C(F)(F)F)cc1` (single isomer, unassigned) [Example 15c, (4-Chloro-2-methoxy-3-(4-(trifluoromethyl)benzyl)quinolin-6-yl)(1,2-dimethyl-1H-imidazol-5-yl)methanol], on human RORγt LBD (6 µM compound, 6 µM), the “RORγt (LBD) Reporter Assay, % inhibition @ 6 µM” value amounted to 101%. The IC50 turned out to be 0.08 µM against human RORγt LBD and 0.058 µM at full-length human RORγt. Also, at full-length human RORγt (HEK-293T, 2 µM compound, read-out: RORγt (FL) Reporter Assay, % inhibition @ 2 µM), the inhibition at 2 µM came to 96%.
